Experimental data taken from patent US10323018B2 (Millennium Pharmaceuticals, Inc., priority 2015, dated 2019).
pIC50: −log10 of the molar value. Where two headings read alike, the source gives them in different places.

Experiments:
[1] = tested on: PC3 cells; assay: PC3 growth inhibition (Cell-titer glo, 72 hours); type: cell-based; conditions: for viability at 1.667 µM: Homo sapiens, PC-3, 72 h, read-out: Percent Viability, PC3 cells, compound concentration 1.667 μM, 72 hours
Summary of the method: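 PC3 cells grown in RPMI1640 plated at 8×10^4 cells/ml, incubated overnight, then exposed to compound diluted in AIM serum-free medium for 72 h at 37 °C, 5% CO2. Luminescence by CellTiter-Glo relative to DMSO controls; % viability at single concentration, GI50 or LD50 from concentration-response curves.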

[2] = target: hNAMPT protein (Homo sapiens (Human), UniProt P43490); assay: NAMPT enzyme assay (TR-FRET/HTRF with BodiPY ligand); type: binding; conditions: for inhibition at 1 µM: read-out: Percent Inhibition; for pIC50: NAMPT inhibition, IC50 range class
Summary of the method: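 His-tagged hNAMPT with anti-6His-Tb, incubated with compound and BodiPY ligand for 1 h at rt in the dark, in Tris-HCl pH 7.5 buffer with DTT, NaCl, MgCl2 and Tween 20. TR-FRET measured with 320 nm excitation as the 520/486 nm emission ratio. IC50 fitted relative to DMSO controls.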

[3] = NAMPT inhibition at compound concentration 1 μM

Chain of hNAMPT protein (P43490 whole entry): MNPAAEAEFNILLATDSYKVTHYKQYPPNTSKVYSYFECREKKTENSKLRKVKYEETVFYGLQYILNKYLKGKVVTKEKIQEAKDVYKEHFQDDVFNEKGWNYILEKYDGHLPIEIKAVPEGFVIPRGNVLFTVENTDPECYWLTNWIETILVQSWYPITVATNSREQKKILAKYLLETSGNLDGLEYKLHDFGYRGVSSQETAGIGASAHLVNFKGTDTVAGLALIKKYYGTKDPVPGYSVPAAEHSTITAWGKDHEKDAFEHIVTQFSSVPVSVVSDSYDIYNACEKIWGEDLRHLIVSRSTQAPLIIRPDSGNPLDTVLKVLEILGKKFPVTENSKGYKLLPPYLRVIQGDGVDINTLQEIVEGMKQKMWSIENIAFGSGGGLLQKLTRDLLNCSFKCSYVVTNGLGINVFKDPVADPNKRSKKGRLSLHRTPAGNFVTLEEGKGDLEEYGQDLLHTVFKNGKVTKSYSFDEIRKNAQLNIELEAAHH

| SMILES | viability at 1.667 µM [1] [%] | inhibition at 1 µM [2, 3] [%] | pIC50 [2] | Percent Viability ([1]; human, 72 h, 1.667 µM) [%] | Percent Inhibition [2, 3] [%] | inhibition at 1 µM [2] [%] |
| --- | --- | --- | --- | --- | --- | --- |
| CCOc1cc(-c2cccnc2OC)nc2cc(C(=O)NCCc3nnc[nH]3)ccc12 [Compound I-180, 4-ethoxy-2-(2-methoxypyridin-3-yl)-N-[2-(4H-1,2,4-triazol-3-yl)ethyl]quinoline-7-carboxamide] | 2 | 83 | < 7.00 |  |  |  |
| CCOc1cc(-c2ccc(F)cc2)nc2cc(C(=O)NCCc3cnn[nH]3)ccc12 [Compound I-107, 4-ethoxy-2-(4-fluorophenyl)-N-[2-(1H-1,2,3-triazol-5-yl)ethyl]quinoline-7-carboxamide] | 2 | 99 | > 8.00 |  |  |  |
| CCOc1cc(-c2ccc(F)cc2)nc2cc(C(=O)N[C@@H](C)c3nc4cnccc4[nH]3)ccc12 [Compound I-160, 4-ethoxy-2-(4-fluorophenyl)-N-[(1S)-1-(1H-imidazo[4,5-c]pyridin-2-yl)ethyl]quinoline-7-carboxamide] | > 99 | 60 | < 7.00 |  |  |  |
| CCOc1cc(-c2cc(F)ccc2OC)nc2cc(C(=O)NCCc3cnn[nH]3)ccc12 [Compound I-184, 4-ethoxy-2-(5-fluoro-2-methoxyphenyl)-N-[2-(1H-1,2,3-triazol-5-yl)ethyl]quinoline-7-carboxamide] | 6 | 91 | 7.00 to 7.30 |  |  |  |
| CCOc1cc(-c2cnc(OC)c(F)c2)nc2cc(C(=O)NCCCc3nnc[nH]3)ccc12 [Compound I-89, 4-ethoxy-2-(5-fluoro-6-methoxypyridin-3-yl)-N-[3-(4H-1,2,4-triazol-3-yl)propyl]quinoline-7-carboxamide] | 2 | 96 | 7.30 to 8.00 |  |  |  |
| CCOc1c(F)c(-c2ccc(F)cc2)nc2cc(C(=O)NCCCc3nnc[nH]3)ccc12 [Compound I-78, 4-ethoxy-3-fluoro-2-(4-fluorophenyl)-N-[3-(4H-1,2,4-triazol-3-yl)propyl]quinoline-7-carboxamide] | 2 | 99 | > 8.00 |  |  |  |
| CCOc1cc(-c2ccc(Cl)cc2)nc2cc(C(=O)NCCCc3nnc[nH]3)ccc12 [Compound I-198] | 3 | 94 |  |  |  |  |
| CCOc1cc(-c2cn[nH]c2)nc2cc(C(=O)NCCCc3nnc[nH]3)ccc12 [Compound I-205, 4-ethoxy-2-(1H-pyrazol-4-yl)-N-[3-(4H-1,2,4-triazol-3-yl)propyl]quinoline-7-carboxamide] | 4 | 63 | < 7.00 |  |  |  |
| CCOc1nc(-c2ccc(F)cc2)nc2cc(C(=O)NCC(C)Cc3ncc[nH]3)ccc12 (centres unmarked) [Compound I-18, 4-ethoxy-2-(4-fluorophenyl)-N-[3-(1H-imidazol-2-yl)-2-methylpropyl]quinazoline-7-carboxamide] | 0 | 99 | 7.30 to 8.00 |  |  |  |
| CCOc1cc(-c2ccc(=O)n(C)c2)nc2cc(C(=O)NCCCc3[nH]nnc3C)ccc12 [Compound I-97, 4-ethoxy-2-(1-methyl-6-oxo-1,6-dihydropyridin-3-yl)-N-[3-(4-methyl-1H-1,2,3-triazol-5-yl)propyl]quinoline-7-carboxamide] | 2 | > 99 | 7.30 to 8.00 |  |  |  |
| CCOc1cc(-c2ccnc(OC)c2)nc2cc(C(=O)NCCc3[nH]nnc3C)ccc12 [Compound I-83, 4-ethoxy-2-(2-methoxypyridin-4-yl)-N-[2-(4-methyl-1H-1,2,3-triazol-5-yl)ethyl]quinoline-7-carboxamide] | 2 | 96 | 7.30 to 8.00 |  |  |  |
| CCOc1cc(-c2ccncc2C)nc2cc(C(=O)NCCCc3nnc[nH]3)ccc12 [Compound I-158, 4-ethoxy-2-(3-methylpyridin-4-yl)-N-[3-(4H-1,2,4-triazol-3-yl)propyl]quinoline-7-carboxamide] | 1 | 97 | 7.30 to 8.00 |  |  |  |
| CCOc1cc(-c2ccc(F)cc2)nc2cc(C(=O)NCC3CC3c3ncc[nH]3)ccc12 (single isomer, unassigned) [Compound I-51, 4-Ethoxy-2-(4-fluorophenyl)-N-{[trans-(1,2)-2-(1H-imidazol-2-yl)cyclopropyl]methyl}quinoline-7-carboxamide] |  |  | 7.30 to 8.00 | 4 | 98 |  |
| CCOc1cc(-c2cccnc2OC)nc2cc(C(=O)NCCCc3cnn[nH]3)ccc12 [Compound I-105, 4-ethoxy-2-(2-methoxypyridin-3-yl)-N-[3-(1H-1,2,3-triazol-5-yl)propyl]quinoline-7-carboxamide] | 2 | 100 | 7.30 to 8.00 |  |  |  |
| CCOc1cc(-c2cccnc2OC)nc2cc(C(=O)NCc3nc4ccncc4[nH]3)ccc12 [Compound I-192, 4-ethoxy-N-(3H-imidazo[4,5-c]pyridin-2-ylmethyl)-2-(2-methoxypyridin-3-yl)quinoline-7-carboxamide] | 3 | 100 | > 8.00 |  |  |  |
| CCOc1cc(-c2ccc(F)cc2)nc2cc(C(=O)NCCc3cncn3C)ccc12 [Compound I-2, 4-ethoxy-2-(4-fluorophenyl)-N-[2-(1-methyl-1H-imidazol-5-yl)ethyl]quinoline-7-carboxamide] | 2 | > 99 | > 8.00 |  |  |  |
| CCOc1cc(-c2cccc(C(F)(F)F)c2)nc2cc(C(=O)NCCCc3nnc[nH]3)ccc12 [Compound I-215, 4-ethoxy-N-[3-(4H-1,2,4-triazol-3-yl)propyl]-2-[3-(trifluoromethyl)phenyl]quinoline-7-carboxamide] | 1 | 93 | 7.00 to 7.30 |  |  |  |
| CCOc1cc(-c2ccc(F)cc2)nc2cc(C(=O)NCCCc3nccs3)ccc12 [Compound I-44, 4-ethoxy-2-(4-fluorophenyl)-N-[3-(1,3-thiazol-2-yl)propyl]quinoline-7-carboxamide] | 58 | 97 | > 8.00 |  |  |  |
| CCOc1cc(-c2cccnc2OC)nc2cc(C(=O)NCCc3cnn[nH]3)ccc12 [Compound I-190, 4-ethoxy-2-(2-methoxypyridin-3-yl)-N-[2-(1H-1,2,3-triazol-5-yl)ethyl]quinoline-7-carboxamide] | 5 | 94 | 7.00 to 7.30 |  |  |  |
| CCOc1cc(-c2ccc(F)cc2OC)nc2cc(C(=O)NCCCc3cc[nH]n3)ccc12 [Compound I-128, 4-ethoxy-2-(4-fluoro-2-methoxyphenyl)-N-[3-(1H-pyrazol-3-yl)propyl]quinoline-7-carboxamide] | 2 | 96 | 7.30 to 8.00 |  |  |  |
| CCOc1cc(-c2ccnc(OC)c2)nc2cc(C(=O)NCc3ccn4ncnc4c3)ccc12 [Compound I-70, 4-ethoxy-2-(2-methoxypyridin-4-yl)-N-([1,2,4]triazolo[1,5-a]pyridin-7-ylmethyl)quinoline-7-carboxamide] | 1 | 99 | > 8.00 |  |  |  |
| CCOc1cc(-c2ccc(Cl)s2)nc2cc(C(=O)NCCc3nnc[nH]3)ccc12 [Compound I-177, 2-(5-chloro-2-thienyl)-4-ethoxy-N-[2-(4H-1,2,4-triazol-3-yl)ethyl]quinoline-7-carboxamide] | 3 | 97 | 7.30 to 8.00 |  |  |  |
| CCOc1cc(-c2ccc(=O)n(C)c2)nc2cc(C(=O)NCCc3[nH]nnc3C)ccc12 [Compound I-76, 4-ethoxy-2-(1-methyl-6-oxo-1,6-dihydropyridin-3-yl)-N-[2-(4-methyl-1H-1,2,3-triazol-5-yl)ethyl]quinoline-7-carboxamide] | 11 | 93 | 7.00 to 7.30 |  |  |  |
| CCOc1cc(-c2ccnc(C)c2)nc2cc(C(=O)NCc3ccc4ncnn4c3)ccc12 [Compound I-74, 4-ethoxy-2-(2-methylpyridin-4-yl)-N-([1,2,4]triazolo[1,5-a]pyridin-6-ylmethyl)quinoline-7-carboxamide] | 1 | 100 | > 8.00 |  |  |  |
| COCc1nc(-c2ccc(Cl)cc2)nc2cc(C(=O)NCCCc3ncc[nH]3)ccc12 [Compound I-25, 2-(4-chlorophenyl)-N-[3-(1H-imidazol-2-yl)propyl]-4-(methoxymethyl)quinazoline-7-carboxamide] | 0 |  | > 8.00 |  |  | 99 |
| CCOc1cc(-c2ccc(C)nc2OC)nc2cc(C(=O)NCCc3c[nH]nc3C)ccc12 [Compound I-92, 4-ethoxy-2-(2-methoxy-6-methylpyridin-3-yl)-N-[2-(3-methyl-1H-pyrazol-4-yl)ethyl]quinoline-7-carboxamide] | 2 | 95 | 7.30 to 8.00 |  |  |  |
| CCOc1cc(-c2ccc(C)nc2)nc2cc(C(=O)NCc3nc4cnccc4[nH]3)ccc12 [Compound I-167, 4-ethoxy-N-(1H-imidazo[4,5-c]pyridin-2-ylmethyl)-2-(6-methylpyridin-3-yl)quinoline-7-carboxamide] | 2 | > 99 | > 8.00 |  |  |  |
| CCOc1cc(-c2cc(F)ccc2OC)nc2cc(C(=O)NCc3nc4cnccc4[nH]3)ccc12 [Compound I-187, 4-ethoxy-2-(5-fluoro-2-methoxyphenyl)-N-(1H-imidazo[4,5-c]pyridin-2-ylmethyl)quinoline-7-carboxamide] | 3 | > 99 | > 8.00 |  |  |  |
